Data taken from patent US20150274719A1, “AMINO-SUBSTITUTED IMIDAZO[1,2-A]PYRIDINECARBOXAMIDES AND THEIR USE” (BAYER PHARMA AKTIENGESELLSCHAFT, priority 2012, published 2015).

Target: T1, recombinant guanylate cyclase reporter cell line (Rattus norvegicus, UniProt P19686+P20595)
T1 construct: expressed in transfected cells; host or cells: recombinant reporter cell line
T1 sequence (P19686 1-690): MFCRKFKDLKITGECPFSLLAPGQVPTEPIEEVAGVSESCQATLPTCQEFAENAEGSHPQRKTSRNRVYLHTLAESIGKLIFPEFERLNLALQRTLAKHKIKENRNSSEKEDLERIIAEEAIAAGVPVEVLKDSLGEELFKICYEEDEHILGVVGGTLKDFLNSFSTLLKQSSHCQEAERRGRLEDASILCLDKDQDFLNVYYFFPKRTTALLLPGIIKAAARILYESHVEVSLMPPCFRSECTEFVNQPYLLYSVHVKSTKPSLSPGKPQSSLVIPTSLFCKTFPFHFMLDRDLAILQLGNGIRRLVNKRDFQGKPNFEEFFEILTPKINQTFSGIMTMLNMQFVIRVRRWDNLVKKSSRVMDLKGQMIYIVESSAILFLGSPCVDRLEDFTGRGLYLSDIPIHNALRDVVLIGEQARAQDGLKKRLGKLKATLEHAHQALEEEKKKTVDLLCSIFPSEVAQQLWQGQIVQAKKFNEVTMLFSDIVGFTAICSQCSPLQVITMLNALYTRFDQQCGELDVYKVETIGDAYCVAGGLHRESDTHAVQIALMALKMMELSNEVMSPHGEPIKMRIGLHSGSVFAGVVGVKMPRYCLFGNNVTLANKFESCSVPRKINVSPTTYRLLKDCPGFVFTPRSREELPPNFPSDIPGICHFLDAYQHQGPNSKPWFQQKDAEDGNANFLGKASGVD
T1 sequence (P20595 1-619): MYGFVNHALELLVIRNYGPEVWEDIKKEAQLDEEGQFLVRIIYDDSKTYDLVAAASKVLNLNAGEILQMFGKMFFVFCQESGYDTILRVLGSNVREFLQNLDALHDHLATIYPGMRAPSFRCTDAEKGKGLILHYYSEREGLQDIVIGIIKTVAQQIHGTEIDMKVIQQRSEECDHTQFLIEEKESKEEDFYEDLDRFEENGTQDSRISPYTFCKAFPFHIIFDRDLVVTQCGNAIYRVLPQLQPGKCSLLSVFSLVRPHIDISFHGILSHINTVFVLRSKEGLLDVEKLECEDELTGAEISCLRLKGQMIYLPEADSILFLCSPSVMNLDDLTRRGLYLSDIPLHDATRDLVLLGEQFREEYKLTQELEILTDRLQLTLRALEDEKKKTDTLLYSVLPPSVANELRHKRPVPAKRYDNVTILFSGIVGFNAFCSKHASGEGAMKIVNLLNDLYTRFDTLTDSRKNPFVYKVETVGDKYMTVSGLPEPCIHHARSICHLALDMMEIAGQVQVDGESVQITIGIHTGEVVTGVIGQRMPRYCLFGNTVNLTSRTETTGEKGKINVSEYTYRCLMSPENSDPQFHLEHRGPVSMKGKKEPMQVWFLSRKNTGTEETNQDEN
Assay: Action on recombinant guanylate cyclase reporter cell line
Assay type: cell-based
Settings: in some cases mean values from individual determinations
Summary of the method: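 Read-out: MEC (minimal effective concentration) in cells. Reporter line carries recombinant sGC. Some values are averages of single runs.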

Row | Compound | MEC (minimal effective concentration) [µM]
1 | Cc1nc2c(OCc3c(F)cccc3F)cccn2c1C(=O)NCC(N)C(C)C (single isomer, unassigned) [Example 229, ent-N-(2-Amino-3-methylbutyl)-8-[(2,6-difluorobenzyl)oxy]-2-methylimidazo[1,2-a]pyridine-3-carboxamide] | 1.00
2 | Cc1nc2c(OCc3c(F)cccc3F)cccn2c1C(=O)NCC(N)C(F)(F)C(F)F (single isomer, unassigned) [Example 231, ent-N-(2-Amino-3,3,4,4-tetrafluorobutyl)-8-[(2,6-difluorobenzyl)oxy]-2-methylimidazo[1,2-a]-pyridine-3-carboxamide] | 0.30
3 | CCCC(C)(N)CNC(=O)c1c(C)nc2c(OCc3c(F)cccc3F)cc(C)cn12 (single isomer, unassigned) [Example 233, ent-N-(2-Amino-2-methylpentyl)-8-[(2,6-difluorobenzyl)oxy]-2,6-dimethylimidazo[1,2-a]pyridine-3-carboxamide] | 0.10
4 | CCCC(C)(N)CNC(=O)c1c(C)nc2c(OCc3c(F)cccc3F)cc(C)cn12 (single isomer, unassigned) [Example 234, ent-N-(2-Amino-2-methylpentyl)-8-[(2,6-difluorobenzyl)oxy]-2,6-dimethylimidazo[1,2-a]pyridine-3-carboxamide] | 0.03
5 | Cc1nc2c(OCc3c(F)cccc3F)cc(Cl)cn2c1C(=O)NCC(C)(N)C(F)(F)F (single isomer, unassigned) [Example 237, ent-N-(2-Amino-3,3,3-trifluoro-2-methylpropyl)-6-chloro-8-[(2,6-difluorobenzyl)oxy]-2-methyl-imidazo[1,2-a]pyridine-3-carboxamide] | 0.30
6 | Cc1nc2c(OCc3c(F)cccc3F)cc(Cl)cn2c1C(=O)NCC(C)(N)C(F)(F)F (single isomer, unassigned) [Example 238, ent-N-(2-Amino-3,3,3-trifluoro-2-methylpropyl)-6-chloro-8-[(2,6-difluorobenzyl)oxy]-2-methyl-imidazo[1,2-a]pyridine-3-carboxamide] | 1.00
7 | Cc1cc(OCc2c(F)cccc2F)c2nc(C)c(C(=O)NCC(C)(N)C(F)(F)F)n2c1 (single isomer, unassigned) [Example 240, ent-N-(2-Amino-3,3,3-trifluoro-2-methylpropyl)-8-[(2,6-difluorobenzyl)oxy]-2,6-dimethylimidazo-[1,2-a]pyridine-3-carboxamide] | 0.30
8 | Cc1cc(OCc2c(F)cccc2F)c2nc(C)c(C(=O)NCC(C)(N)C(F)(F)F)n2c1 (single isomer, unassigned) [Example 241, ent-N-(2-Amino-3,3,3-trifluoro-2-methylpropyl)-8-[(2,6-difluorobenzyl)oxy]-2,6-dimethylimidazo-[1,2-a]pyridine-3-carboxamide] | 0.30
9 | COCC(N)CNC(=O)c1c(C)nc2c(OCc3c(F)cccc3F)cc(C)cn12 (single isomer, unassigned) [Example 242, ent-N-(2-Amino-3-methoxypropyl)-8-[(2,6-difluorobenzyl)oxy]-2,6-dimethylimidazo[1,2-a]-pyridine-3-carboxamide] | 0.30
10 | COCC(N)CNC(=O)c1c(C)nc2c(OCc3c(F)cccc3F)cc(C)cn12 (single isomer, unassigned) [Example 243, ent-N-(2-Amino-3-methoxypropyl)-8-[(2,6-difluorobenzyl)oxy]-2,6-dimethylimidazo[1,2-a]-pyridine-3-carboxamide] | 1.00
11 | Cc1cc(OCc2c(F)cccc2F)c2nc(C)c(C(=O)NC3CCC(N)C3)n2c1 (single isomer, unassigned) [Example 309, ent-N-(3-aminocyclopentyl)-8-[(2,6-difluorobenzyl)oxy]-2,6-dimethylimidazo[1,2-a]pyridine-3-carboxamide] | 0.30
12 | Cc1nc2c(OCc3c(F)cccc3F)cccn2c1C(=O)NC(CN)CC(C(F)(F)F)C(F)(F)F (single isomer, unassigned; enantiomer a) [Example 7, ent-N-[1-Amino-5,5,5-trifluoro-4-(trifluoromethyl)pentan-2-yl]-8-[(2,6-difluorobenzyl)oxy]-2-methylimidazo[1,2-a]pyridine-3-carboxamide (Enantiomer A)] | 1.00
13 | Cc1nc2c(OCc3c(F)cccc3F)cccn2c1C(=O)NC(CN)c1ccc(F)c(F)c1 (single isomer, unassigned; enantiomer a) [Example 12, ent-N-[2-Amino-1-(3,4-difluorophenyl)ethyl]-8-[(2,6-difluorobenzyl)oxy]-2-methylimidazo[1,2-a]-pyridine-3-carboxamide (Enantiomer A)] | 1.00
14 | CCCC(C)(N)CNC(=O)c1c(C)nc2c(OCc3c(F)cccc3F)cc(Cl)cn12 (single isomer, unassigned; enantiomer a) [Example 245, ent-N-(2-Amino-2-methylpentyl)-6-chloro-8-[(2,6-difluorobenzyl)oxy]-2-methylimidazo[1,2-a]-pyridine-3-carboxamide (Enantiomer A)] | 0.10
15 | COCC(N)CNC(=O)c1c(C)nc2c(OCc3c(F)cccc3F)cccn12 (single isomer, unassigned; enantiomer a) [Example 247, ent-N-(2-Amino-3-methoxypropyl)-8-[(2,6-difluorobenzyl)oxy]-2-methylimidazo[1,2-a]pyridine-3-carboxamide (Enantiomer A)] | 3.00
16 | Cc1cc(OCc2c(F)cccc2F)c2nc(C)c(C(=O)NCC(C)(N)C3CC3)n2c1 (single isomer, unassigned; enantiomer a) [Example 260, ent-N-(2-Amino-2-cyclopropylpropyl)-8-[(2,6-difluorobenzyl)oxy]-2,6-dimethylimidazo[1,2-a]-pyridine-3-carboxamide (Enantiomer A)] | 0.10
17 | Cc1nc2c(OCc3c(F)cccc3F)cccn2c1C(=O)NCC(C)(N)CCOCc1ccccc1 (single isomer, unassigned; enantiomer a) [Example 266, ent-N-[2-Amino-4-(benzyloxy)-2-methylbutyl]-8-[(2,6-difluorobenzyl)oxy]-2-methylimidazo[1,2-a]pyridine-3-carboxamide (Enantiomer A)] | 0.03
18 | Cc1cc(OCc2c(F)cccc2F)c2nc(C)c(C(=O)NCC(C)(N)CO)n2c1 (single isomer, unassigned; enantiomer a) [Example 268, ent-N-(2-Amino-3-hydroxy-2-methylpropyl)-8-[(2,6-difluorobenzyl)oxy]-2,6-dimethylimidazo-[1,2-a]pyridine-3-carboxamide (Enantiomer A)] | 0.55
